Measurements: US6355799B1, “Substituted benzene compounds, process for their preparation, and herbicidal and defoliant compositions containing them” (ISK Americas Incorporated, priority 1997, dated 2002)

Assays:
Assay type in all cases: in vivo
[1] = test system: redroot pigweed (Amaranthus retroflexus, AMARE); experiment: Pre-emerge test, greenhouse herbicide activity screening; conditions: pre-emerge, phytotoxicity rating 0-100 at 14 days after application
Summary of the method: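 Compounds in acetone were track-sprayed at 15-1000 g ai/ha (187 l/ha) on sandy loam pots: pre-emerge one day after seeding, post-emerge at 2-3 leaf stage with 0.25% v/v non-ionic surfactant. Phytotoxicity was rated 14 days later on a 0 (no damage) to 100 (complete death) scale.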

[2] = test system: upland rice (Oryza sp., var. Tebonnet, RICE); experiment: Pre-emerge test, crop safety; conditions: crop damage, pre-emerge, phytotoxicity rating 0-100 at 14 days after application
Summary of the method: (§1)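 Compounds in acetone were track-sprayed at 187 l/ha, 15–1000 g ai/ha, onto sandy loam pots. Pre-emerge seeds were sown one day before spraying, with surface watering afterwards. Post-emerge plants were at the 2–3 leaf stage and sprayed with 0.25% v/v non-ionic surfactant. Injury was rated 0–100 at 14 days.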

[3] = test system: field corn (Zea mays L., var. Dekalb 535, CORN); experiment: Pre-emerge test, crop safety; conditions: crop damage, pre-emerge, phytotoxicity rating 0-100 at 14 days after application
Summary of the method: as §1

[4] = test system: upland rice (Oryza sp., var. Tebonnet, RICE); experiment: Post-emerge test, crop safety; conditions: post-emerge, crop damage rating 0-100 at 14 days after application
Summary of the method: (§2)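 Plants grown in 10 cm pots of sandy loam mix received acetone-dissolved compounds through a moving flat-fan nozzle. Doses ranged from 15 to 1000 g ai/ha. Pre-emerge pots were seeded one day earlier, post-emerge pots 8–21 days earlier. Fourteen days on, each pot was graded 0–100 for damage.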

[5] = test system: field corn (Zea mays L., var. Dekalb 535, CORN); experiment: Post-emerge test, crop safety; conditions: post-emerge, crop damage rating 0-100 at 14 days after application
Summary of the method: as §2

[6] = test system: lambsquarters (Chenopodium album, CHEAL); experiment: Pre-emerge test, greenhouse herbicide activity screening; conditions: pre-emerge, phytotoxicity rating 0-100 at 14 days after application
Summary of the method: (§3)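 Rating: 0–100 visual injury, 14 DAA. Application: acetone, 187 l/ha, 15–1000 g ai/ha, flat-fan track sprayer with nozzle 40–45 cm above soil or canopy. Post-emerge runs used 0.25% v/v surfactant on 2–3 leaf plants.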

[7] = test system: barnyardgrass (Echinochloa crus-galli, ECHCG); experiment: as above; conditions: pre-emerge, phytotoxicity rating 0-100 at 14 days after application
Summary of the method: as §3

[8] = test system: ivyleaf morningglory (Ipomoea hederacea, IPOHE); experiment: as above; conditions: pre-emerge, phytotoxicity rating 0-100 at 14 days after application
Summary of the method: as §3

[9] = test system: sicklepod (Cassia obtusifolia, CASOB); experiment: as above; conditions: pre-emerge, phytotoxicity rating 0-100 at 14 days after application
Summary of the method: as §3

[10] = test system: velvetleaf (Abutilon theophrasti, ABUTH); experiment: as above; conditions: pre-emerge, phytotoxicity rating 0-100 at 14 days after application
Summary of the method: as §3

[11] = test system: johnsongrass (Sorghum halepense, SORHA); experiment: as above; conditions: pre-emerge, phytotoxicity rating 0-100 at 14 days after application
Summary of the method: as §3

[12] = test system: green foxtail (Setaria viridis, SETVI); experiment: as above; conditions: pre-emerge, phytotoxicity rating 0-100 at 14 days after application
Summary of the method: as §3

[13] = test system: large crabgrass (Digitaria sanguinalis, DIGSA); experiment: as above; conditions: pre-emerge, phytotoxicity rating 0-100 at 14 days after application
Summary of the method: as §3

[14] = test system: lambsquarters (Chenopodium album, CHEAL); experiment: Post-emerge test, greenhouse herbicide activity screening; conditions: post-emerge, phytotoxicity rating 0-100 at 14 days after application
Summary of the method: (§4)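 Fourteen days after spraying, crop and weed injury was graded visually from 0, no effect, to 100, every plant dead. Test substances were dissolved in acetone and applied at 15–1000 g ai/ha with a flat-fan nozzle. Application was either pre-emergence, one day after sowing, or post-emergence at the 2–3 leaf stage.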

[15] = test system: barnyardgrass (Echinochloa crus-galli, ECHCG); experiment: as above; conditions: post-emerge, phytotoxicity rating 0-100 at 14 days after application
Summary of the method: as §4

[16] = test system: ivyleaf morningglory (Ipomoea hederacea, IPOHE); experiment: as above; conditions: post-emerge, phytotoxicity rating 0-100 at 14 days after application
Summary of the method: as §4

[17] = test system: sicklepod (Cassia obtusifolia, CASOB); experiment: as above; conditions: post-emerge, phytotoxicity rating 0-100 at 14 days after application
Summary of the method: as §4

[18] = test system: velvetleaf (Abutilon theophrasti, ABUTH); experiment: as above; conditions: post-emerge, phytotoxicity rating 0-100 at 14 days after application
Summary of the method: as §4

[19] = test system: johnsongrass (Sorghum halepense, SORHA); experiment: as above; conditions: post-emerge, phytotoxicity rating 0-100 at 14 days after application
Summary of the method: as §4

[20] = test system: redroot pigweed (Amaranthus retroflexus, AMARE); experiment: as above; conditions: post-emerge, phytotoxicity rating 0-100 at 14 days after application
Summary of the method: as §4

[21] = test system: green foxtail (Setaria viridis, SETVI); experiment: as above; conditions: post-emerge, phytotoxicity rating 0-100 at 14 days after application
Summary of the method: as §4

[22] = test system: large crabgrass (Digitaria sanguinalis, DIGSA); experiment: as above; conditions: post-emerge, phytotoxicity rating 0-100 at 14 days after application
Summary of the method: as §4

Nc1c(OC2CCCC2)c(Cl)cc(F)c1N1C(=O)C2=C(CCCC2)C1=O [Compound 8-5, N-(2-amino-4-chloro-3-cyclopentyloxy-6-fluorophenyl)tetrahydrophthalimide]
Pre-emerge Herbicidal Activity AMARE ([1]; rate 63 g ai/ha): 40 | Pre-emerge Herbicidal Activity AMARE ([1]; rate 250 g ai/ha): 95 | Pre-emerge Herbicidal Activity RICE ([2]; rate 63 g ai/ha): 0 | Pre-emerge Herbicidal Activity RICE ([2]; rate 250 g ai/ha): 0 | Pre-emerge Herbicidal Activity CORN ([3]; rate 63 g ai/ha): 0 | Pre-emerge Herbicidal Activity CORN ([3]; rate 250 g ai/ha): 0 | Post-emerge Herbicidal Activity RICE ([4]; 63 g ai/ha): 40 | Post-emerge Herbicidal Activity RICE ([4]; 250 g ai/ha): 50 | Post-emerge Herbicidal Activity CORN ([5]; 63 g ai/ha): 0 | Post-emerge Herbicidal Activity CORN ([5]; 250 g ai/ha): 0 | Pre-emerge Herbicidal Activity CHEAL ([6]; rate 63 g ai/ha): 0 | Pre-emerge Herbicidal Activity CHEAL ([6]; rate 250 g ai/ha): 80 | Pre-emerge Herbicidal Activity ECHCG ([7]; rate 63 g ai/ha): 0 | Pre-emerge Herbicidal Activity ECHCG ([7]; rate 250 g ai/ha): 0 | Pre-emerge Herbicidal Activity IPOHE ([8]; rate 63 g ai/ha): 0 | Pre-emerge Herbicidal Activity IPOHE ([8]; rate 250 g ai/ha): 0 | Pre-emerge Herbicidal Activity CASOB ([9]; rate 63 g ai/ha): 0 | Pre-emerge Herbicidal Activity CASOB ([9]; rate 250 g ai/ha): 40 | Pre-emerge Herbicidal Activity ABUTH ([10]; rate 63 g ai/ha): 0 | Pre-emerge Herbicidal Activity ABUTH ([10]; rate 250 g ai/ha): 70 | Pre-emerge Herbicidal Activity SORHA ([11]; rate 63 g ai/ha): 0 | Pre-emerge Herbicidal Activity SORHA ([11]; rate 250 g ai/ha): 20 | Pre-emerge Herbicidal Activity SETVI ([12]; rate 63 g ai/ha): 70 | Pre-emerge Herbicidal Activity SETVI ([12]; rate 250 g ai/ha): 90 | Pre-emerge Herbicidal Activity DIGSA ([13]; rate 63 g ai/ha): 0 | Pre-emerge Herbicidal Activity DIGSA ([13]; rate 250 g ai/ha): 0 | Post-emerge Herbicidal Activity CHEAL ([14]; 63 g ai/ha): 70 | Post-emerge Herbicidal Activity CHEAL ([14]; 250 g ai/ha): 70 | Post-emerge Herbicidal Activity ECHCG ([15]; 63 g ai/ha): 0 | Post-emerge Herbicidal Activity ECHCG ([15]; 250 g ai/ha): 0 | Post-emerge Herbicidal Activity IPOHE ([16]; 63 g ai/ha): 0 | Post-emerge Herbicidal Activity IPOHE ([16]; 250 g ai/ha): 40 | Post-emerge Herbicidal Activity CASOB ([17]; 63 g ai/ha): 0 | Post-emerge Herbicidal Activity CASOB ([17]; 250 g ai/ha): 10 | Post-emerge Herbicidal Activity ABUTH ([18]; 63 g ai/ha): 70 | Post-emerge Herbicidal Activity ABUTH ([18]; 250 g ai/ha): 90 | Post-emerge Herbicidal Activity SORHA ([19]; 63 g ai/ha): 0 | Post-emerge Herbicidal Activity SORHA ([19]; 250 g ai/ha): 0 | Post-emerge Herbicidal Activity AMARE ([20]; 63 g ai/ha): 40 | Post-emerge Herbicidal Activity AMARE ([20]; 250 g ai/ha): 100 | Post-emerge Herbicidal Activity SETVI ([21]; 63 g ai/ha): 0 | Post-emerge Herbicidal Activity SETVI ([21]; 250 g ai/ha): 20 | Post-emerge Herbicidal Activity DIGSA ([22]; 63 g ai/ha): 0 | Post-emerge Herbicidal Activity DIGSA ([22]; 250 g ai/ha): 0
